In PubChem BioAssay (NCI) one finds TGI and GI50 data, which are given here for 32 molecules.

Assay in all cases: DTP human tumour cell line panel, 48 h
In test [1] the test system is HL-60(TB) leukemia.
Test [2] has as its system HOP-62 NSCLC.
The test system of test [3] is LOX IMVI melanoma.
In test [4] the test system is MOLT-4 leukemia.
Test [5] deals with NCI-H460 lung.
Test [6] concerns RPMI-8226 leukemia.
For test [7], the system named is U251 CNS.
The subject of test [8] is HCC-2998 colon.
Test [9] relates to DU-145 prostate.
The test system of test [10] is MDA-MB-435.

As usually defined, the TGI is the concentration giving total growth inhibition. Low readings indicate greater sensitivity of the cells, high ones lower sensitivity of the cells. One may read the GI50 as the concentration at which growth is held to half of that of the control.

Values joined by “and” are separate entries in the source; they are usually repeats but may differ in a detail not shown here. Identical values can stand only once.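 Test compounds were applied to cells in 96-well plates for 48 hours at 5 doses. Here, GI50 denotes the concentration required for 50% inhibition of growth. Definition used: TGI = concentration required for complete inhibition of growth.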 Where only a bound is given, the exact number is not on record here.

Take `O=C(O)CCCl`: the TGI in test [1], in [2], in test [3], in test [4], in [5] and in test [6] was more than 5000 µM throughout. In test [7], the TGI is more than 5000 µM.
Take `C=C1C(=O)OC2/C=C(\C)C(OC(C)=O)C3OC3C(C)(O)CC(OC(=O)/C(C)=C/C)C12` (stereo not drawn): the TGI in [8] amounted to 21.3 µM; in [1], 5.81 µM; in test [2] it was 37.4 µM; in test [3], 30.4 µM; in [4], 85.6 µM; in test [5], 29.1 µM. For the same molecule, the TGI was 28.2 µM in test [6] and 24.5 µM in test [7].
As to `O=C1c2ccccc2C(=O)N1n1c(Cc2ccccc2)n[nH]c1=O`, the TGI in [9], in test [8], in test [2], in test [3], in test [10] and in test [4] was more than 100 µM each time. Also, the TGI in test [5] and in [7] was more than 100 µM in each case.
Take `CCC(C)[C@@H](NCc1ccccc1)[C@H](OCc1ccccc1)[C@@H]1COC(C)(C)O1` (stereo partly drawn): the TGI was 68 µM in test [9]; more than 100 µM in test [2]; 38 µM in [3]; more than 100 µM in test [10]; 62.3 µM in test [4]; 36.1 µM in [6]. The TGI in test [7] was 51.1 µM.
Regarding `CCOC(=O)CCCn1nnc(C(=O)OCC)c1C(=O)OCC`, the TGI in test [9], in test [8], in test [2], in test [3], in test [10] and in [4] was more than 100 µM in each case. Further, the TGI in test [5] and in test [7] was more than 100 µM in each case.
With `O=C(CSc1nnc(-c2ccc(N=Cc3ccc(Cl)cc3)cc2)o1)Nc1ccccc1Cl`, the TGI in test [1], in test [2], in test [3], in test [4], in test [5] and in test [6] was more than 100 µM in each case. The molecule further registered a TGI in test [7] of more than 100 µM.
Take `O=c1c2ccccc2oc2nc3n(c(=O)c12)CCCS3`: the TGI in test [9], in test [8], in test [2], in test [3], in test [10] and in test [4] was more than 100 µM in each case. Besides, the TGI in test [5], in test [6] and in test [7] was more than 100 µM each time.
For the molecule `COc1cccc2c1OC1c3ccccc3OCC1C2` (stereo not drawn), the TGI in test [9], in test [8], in test [2], in test [3], in test [10] and in test [4] was more than 100 µM each time. Moreover, the TGI in test [6] and in test [7] was more than 100 µM throughout.
Consider `O=C(COc1ccc(OCC(=O)N2C(=O)CC(=O)N(c3ccccc3)C2=S)cc1)N1C(=O)CC(=O)N(c2ccccc2)C1=S`, for which the TGI in test [9], in test [8], in test [10], in test [4], in test [5] and in [6] was more than 100 µM throughout. The same molecule displayed a TGI in [7] of more than 100 µM.
Consider `S=c1sc2c(Cl)ncnc2n1-c1ccccc1`, for which the TGI in [8] amounted to 31.1 µM; in test [2], 29.3 µM; in test [3] it was 16.6 µM; in test [4], 56.1 µM; in test [5], 32.6 µM; in [6] it was 56.7 µM. Moreover, the TGI in test [7] came out at 29.5 µM.
Consider `CC1=NN(C(=O)CSc2nnc(SCC(=O)N3N=C(C)CC3(O)c3ccccc3)s2)C(O)(c2ccccc2)C1` (stereo not drawn), for which the TGI in [9], in [8], in test [2], in test [3], in test [10] and in test [4] was more than 100 µM each time. Besides, the TGI in test [5], in test [6] and in test [7] was more than 100 µM each time.
For `C/C=C/[C@@]1(OC(=O)c2ccccc2)C[C@@H]2CCCC[C@@H]21`, the TGI in [9] stood at 31.4 µM; in [8] it was 44.3 µM; in test [1], 30.9 µM; in test [2], 29 µM; in [3] it was 44.7 µM; in test [4] it was 40.2 µM. Also, the TGI in [5] came to 34.2 µM; in test [6], 38.5 µM; in test [7] it was 29.8 µM.
With `Cc1c2cc[nH]c(C(F)(F)F)c2cc2c1nc1ccccc12`, the TGI in test [8] is more than 125 µM; in test [1] it was more than 125 µM; in test [2], more than 125 µM; in test [3], more than 125 µM; in [4], more than 78.9 µM; in test [5] it was more than 125 µM. Moreover, the TGI is more than 78.9 µM in [6] and more than 125 µM in test [7].
For `CCC1(O)CC(OC2CC(N(C)C)C(OC3CC4OC5CC(=O)C(C)OC5OC4C(C)O3)C(C)O2)c2c(cc3c(c2O)C(=O)c2c(O)ccc(O)c2C3=O)C1C(=O)OC` (stereo not drawn), the GI50 in [8] was 0.021 µM and 0.01 µM; in [3], 0.00915 µM; in [7] it was 0.00486 µM and 0.00785 µM and < 0.0121 µM. Also, the TGI in test [8] was 0.0607 µM and 0.0199 µM and < 0.0465 µM.
In the case of `CCN(CC)CCNC(=O)c1ccccc1NC(=O)C(=O)Nc1ccccc1C(=O)NCCN(CC)CC`, the TGI in [8] was more than 100 µM; in test [1], 32.4 µM; in test [2] it was more than 100 µM; in test [3] it was 73.6 µM; in test [4], 74.4 µM; in test [5] it was more than 100 µM. Further, the TGI in test [6] and in test [7] was more than 100 µM in each case.
Turning to `C1CC2=C(C1)[Se]C(=C1Sc3nsnc3S1)[Se]2`, the TGI in test [9], in [8], in [2], in test [3], in [10] and in test [4] was more than 100 µM in each case. In addition, the TGI in test [5], in [6] and in [7] was more than 100 µM in each case.
Regarding `O=C1C2CCCCC2C(=O)N1n1c(Cc2ccc(Cl)cc2)n[nH]c1=O` (stereo not drawn), the TGI in test [8], in test [2], in test [3], in [10], in test [4] and in test [5] was more than 100 µM each time. The TGI in test [6] and in [7] was more than 100 µM each time.
For the molecule `O=C1c2c(F)c(F)c(F)c(F)c2SC2=NCCN12`, the TGI in test [9] worked out at 31 µM; in test [8], 28 µM; in [2], 32.6 µM; in test [3], 3.07 µM; in test [10], 8.59 µM; in test [4] it was 6.7 µM. Also, the TGI in [5] amounted to 17.5 µM; in [6], 24.8 µM; in test [7], 22.9 µM.
Turning to `CC(C)(C)OC(=O)CN1CCNCCNCC1`, the TGI in test [9], in [2], in [3], in test [10], in [4] and in test [5] was more than 100 µM each time. In addition, the TGI in test [6] and in [7] was more than 100 µM throughout.
Regarding `O=C(Nc1c(O)[nH]c(=S)[nH]c1=O)c1ccccn1`, the TGI in test [1], in [2], in test [3], in [4], in test [5] and in [6] was more than 100 µM in each case. Also, the TGI in test [7] was more than 100 µM.
With `CC12CC3C(CC1SCC(=O)O2)C3(C)C` (stereo not drawn), the TGI in test [8], in test [1], in test [4], in test [5], in test [6] and in test [7] was more than 100 µM each time.
Consider `COC(=O)c1cn(CCCC(=O)O)nn1`, for which the TGI in test [9], in test [8], in [2], in test [3], in test [10] and in test [4] was more than 100 µM throughout. For the same molecule, the TGI in [5] and in test [7] was more than 100 µM throughout.
With `CCOC(=O)c1cn(-c2ccccc2)c(=S)n2c1nc1ccccc12`, the TGI was more than 100 µM in [9]; 96.9 µM in test [8]; more than 100 µM in [2]; more than 100 µM in test [3]; more than 94.8 µM in test [10]; 17.5 µM in test [4]. Further, the TGI in [5], in [6] and in [7] was more than 100 µM each time.
On to `C[N+]1(C)CCCC1C(=O)[O-]` (stereo not drawn), for which the TGI in test [8], in test [1], in test [2], in test [3], in test [4] and in test [5] was more than 100 µM throughout. In addition, the TGI in test [6] and in test [7] was more than 100 µM throughout.
Regarding `Cc1ccc(S(=O)(=O)N/N=C/c2oc(-c3cccc([N+](=O)[O-])c3)c(-c3cccc([N+](=O)[O-])c3)c2[N+](=O)[O-])cc1`, the TGI in [9] was more than 100 µM; in test [8], more than 100 µM; in [1], 57.1 µM; in test [3], 33.5 µM; in test [4], 77.9 µM; in test [5], more than 100 µM. In addition, the TGI in test [6] is 67.1 µM; in test [7], more than 100 µM.
As to `CO/C(=N\N=C\c1cc(OC)ccc1OC)c1ccncc1`, the TGI in test [8], in [1], in [2], in [3], in test [4] and in test [5] was more than 10 µM each time. In addition, the TGI in test [6] and in test [7] was more than 10 µM each time.
With `Clc1ccc(-c2ccc(-c3nnc(CCc4nnc(-c5ccc(-c6ccc(Cl)cc6)o5)o4)o3)o2)cc1`, the TGI in test [9] was more than 100 µM; in test [8], more than 100 µM; in test [2], more than 100 µM; in test [3], more than 100 µM; in [10], more than 100 µM; in test [4] it was more than 45.3 µM. Also, the TGI in [5], in [6] and in test [7] was more than 100 µM in each case.
`CC(=O)OCC1OC(Nc2[nH]c(=O)n(C)c(=O)c2-c2csc(N)n2)C(OC(C)=O)C(OC(C)=O)C1OC(C)=O` (stereo not drawn): the TGI in test [1], in test [2], in test [3], in test [4], in test [5] and in [6] was more than 100 µM throughout. In addition, in test [7], the TGI is more than 100 µM.
For the molecule `COc1ccc(-c2nc(N)c(C#N)c3c2CCS(=O)(=O)c2ccc(C)cc2-3)cc1OC`, the total growth inhibition concentration (TGI) in test [9] is more than 100 µM; in test [8] it was more than 100 µM; in test [2], more than 100 µM; in test [3], more than 100 µM; in test [10] it was 91.6 µM; in test [5], more than 100 µM. Moreover, in test [7], the TGI was more than 100 µM.
`CCC(C)[C@H](NC(=O)[C@H](Cc1ccccc1)NC(=O)N(CC)c1ccccc1)C(=O)N[C@@H](CC(C)C)C(=O)OC` (stereo partly drawn): the TGI was more than 100 µM in test [9]; more than 100 µM in test [8]; more than 100 µM in test [2]; more than 100 µM in test [3]; more than 100 µM in test [10]; 39.7 µM in test [4]. The TGI in test [6] was 38 µM; in test [7], more than 100 µM.
In the case of `COc1c2c(c3c(c1C1OC(C)[C@@H](C)O1)CC(C)(C)O3)C(=O)c1ccccc1C2=O` (stereo partly drawn), the TGI in test [8] is more than 100 µM; in test [1] it was 31.6 µM; in test [2], more than 100 µM; in test [3], 28.6 µM; in test [5], more than 100 µM; in test [6], 52.2 µM. This molecule displayed a TGI in [7] of more than 100 µM.
`C1=C(c2ccccc2)CN(c2ccccc2)OC1`: the TGI in test [8], in test [1], in [2], in [3], in [4] and in test [5] was more than 100 µM each time. In addition, the TGI in test [6] and in test [7] was more than 100 µM in each case.
